From ChEMBL document CHEMBL3875218, “Bifunctional conjugates with potent inhibitory activity towards cyclooxygenase and histone deacetylase” (Bioorg Med Chem, 2017)

Experiments:
[1] = test system: LNCaP; assay: Induction of cell cycle arrest in human LNCAP cells assessed as accumulation at lesser G1 phase at 2.5 uM after 24 hrs by propidium iodide staining based FACS analysis (reference value: 1.59%); type: functional
[2] = target: T1, Prostaglandin G/H synthase 2 (Homo sapiens, UniProt P35354); assay: Inhibition of recombinant human COX2 using arachidonic acid as substrate preincubated for 15 mins followed by substrate addition for 2 mins by Cayman based fluorescence assay
T1 sequence (P35354 whole entry): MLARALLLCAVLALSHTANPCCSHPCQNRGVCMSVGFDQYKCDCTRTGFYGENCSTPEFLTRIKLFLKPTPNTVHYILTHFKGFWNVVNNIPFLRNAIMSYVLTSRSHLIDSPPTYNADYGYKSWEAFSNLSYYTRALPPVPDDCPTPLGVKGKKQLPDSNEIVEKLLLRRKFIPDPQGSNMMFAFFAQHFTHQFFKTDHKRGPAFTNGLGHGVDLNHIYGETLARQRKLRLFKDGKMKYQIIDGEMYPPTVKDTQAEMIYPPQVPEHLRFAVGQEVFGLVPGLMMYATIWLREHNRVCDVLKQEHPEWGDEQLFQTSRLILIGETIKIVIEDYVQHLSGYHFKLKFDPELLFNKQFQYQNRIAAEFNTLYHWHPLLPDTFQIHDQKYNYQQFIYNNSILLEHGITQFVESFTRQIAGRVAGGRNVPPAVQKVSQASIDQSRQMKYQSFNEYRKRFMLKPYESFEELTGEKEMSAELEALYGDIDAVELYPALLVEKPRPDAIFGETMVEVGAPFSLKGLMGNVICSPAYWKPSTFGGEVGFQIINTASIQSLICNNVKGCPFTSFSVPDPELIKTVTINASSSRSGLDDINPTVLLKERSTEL

[3] = target: T2, Prostaglandin G/H synthase 2 (Homo sapiens) (UniProt P35354); assay: Inhibition of recombinant human COX2 at 10 uM using arachidonic acid as substrate preincubated for 15 mins followed by substrate addition for 2 mins by Cayman based fluorescence assay
T2 sequence (whole entry): T1 sequence (P35354 whole entry)

[4] = Cytotoxicity against human HeLa cells assessed as cell growth inhibition after 72 hrs by MTT assay
[5] = target: T3, Protein deacetylase HDAC6 (Homo sapiens) (UniProt Q9UBN7); assay: Inhibition of HDAC6 in human LNCAP cells assessed as acetylated tubulin accumulation in cytosol after 24 hrs by Western blot analysis; type: cell-based
T3 sequence (whole entry): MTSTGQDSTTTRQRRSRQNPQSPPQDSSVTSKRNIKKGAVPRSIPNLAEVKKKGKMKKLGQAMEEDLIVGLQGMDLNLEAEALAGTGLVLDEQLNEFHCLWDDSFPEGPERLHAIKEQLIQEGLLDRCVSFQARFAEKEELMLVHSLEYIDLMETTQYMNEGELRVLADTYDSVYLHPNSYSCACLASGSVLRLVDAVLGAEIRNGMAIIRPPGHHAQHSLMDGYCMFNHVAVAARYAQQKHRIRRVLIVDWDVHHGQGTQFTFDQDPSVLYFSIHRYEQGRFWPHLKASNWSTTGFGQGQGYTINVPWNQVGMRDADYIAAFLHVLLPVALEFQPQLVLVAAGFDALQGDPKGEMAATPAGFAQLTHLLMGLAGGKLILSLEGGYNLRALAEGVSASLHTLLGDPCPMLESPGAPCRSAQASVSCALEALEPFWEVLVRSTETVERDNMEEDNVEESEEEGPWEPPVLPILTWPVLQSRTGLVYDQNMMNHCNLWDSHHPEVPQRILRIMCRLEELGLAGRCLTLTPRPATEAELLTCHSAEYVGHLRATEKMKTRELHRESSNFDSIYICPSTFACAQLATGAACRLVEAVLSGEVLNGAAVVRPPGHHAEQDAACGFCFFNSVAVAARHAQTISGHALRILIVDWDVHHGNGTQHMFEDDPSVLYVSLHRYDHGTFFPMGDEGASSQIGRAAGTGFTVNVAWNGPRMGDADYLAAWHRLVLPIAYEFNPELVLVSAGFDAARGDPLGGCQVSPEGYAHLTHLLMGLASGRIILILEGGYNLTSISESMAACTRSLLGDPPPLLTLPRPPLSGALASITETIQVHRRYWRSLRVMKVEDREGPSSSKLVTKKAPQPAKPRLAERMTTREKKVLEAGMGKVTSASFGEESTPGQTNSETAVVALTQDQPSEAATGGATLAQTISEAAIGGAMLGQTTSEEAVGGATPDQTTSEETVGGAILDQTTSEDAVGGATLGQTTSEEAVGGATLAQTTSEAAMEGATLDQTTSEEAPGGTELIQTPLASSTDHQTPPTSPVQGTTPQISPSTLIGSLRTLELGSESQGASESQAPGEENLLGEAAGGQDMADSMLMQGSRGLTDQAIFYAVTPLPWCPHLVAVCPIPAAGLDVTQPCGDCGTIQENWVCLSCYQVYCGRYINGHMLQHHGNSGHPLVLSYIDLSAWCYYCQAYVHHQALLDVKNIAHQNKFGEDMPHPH

[6] = test system: LNCaP; assay: Inhibition of class 1 HDAC in human LNCAP cells assessed as acetylated histone H4 accumulation after 24 hrs by Western blot analysis; type: cell-based
[7] = target: Histone deacetylase 3 (Homo sapiens, UniProt O15379); assay: Inhibition of HDAC3 (unknown origin) after 5 hrs by SAMDI mass spectroscopic analysis
[8] = target: T4, Prostaglandin G/H synthase 1 (Ovis aries) (UniProt P05979); assay: Inhibition of sheep COX1 at 10 uM using arachidonic acid as substrate preincubated for 15 mins followed by substrate addition for 2 mins by Cayman based fluorescence assay
T4 sequence (whole entry): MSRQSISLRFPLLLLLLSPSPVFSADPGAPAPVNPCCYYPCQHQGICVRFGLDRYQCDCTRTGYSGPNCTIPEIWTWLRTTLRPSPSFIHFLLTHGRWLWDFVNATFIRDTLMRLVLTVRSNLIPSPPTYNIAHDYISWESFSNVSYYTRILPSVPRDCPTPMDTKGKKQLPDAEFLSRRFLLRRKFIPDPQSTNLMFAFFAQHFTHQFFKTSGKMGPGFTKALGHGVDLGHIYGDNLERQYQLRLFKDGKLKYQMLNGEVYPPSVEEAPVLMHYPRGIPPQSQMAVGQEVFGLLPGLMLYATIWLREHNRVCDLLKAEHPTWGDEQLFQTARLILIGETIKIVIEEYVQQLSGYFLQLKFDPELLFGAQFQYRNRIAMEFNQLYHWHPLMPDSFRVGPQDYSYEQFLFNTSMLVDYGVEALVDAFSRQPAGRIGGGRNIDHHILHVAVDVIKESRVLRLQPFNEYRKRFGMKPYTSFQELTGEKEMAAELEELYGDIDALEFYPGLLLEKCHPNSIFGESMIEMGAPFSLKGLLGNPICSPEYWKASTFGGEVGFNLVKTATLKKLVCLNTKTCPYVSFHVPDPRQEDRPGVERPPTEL

Chain of Histone deacetylase 3 (O15379 whole entry): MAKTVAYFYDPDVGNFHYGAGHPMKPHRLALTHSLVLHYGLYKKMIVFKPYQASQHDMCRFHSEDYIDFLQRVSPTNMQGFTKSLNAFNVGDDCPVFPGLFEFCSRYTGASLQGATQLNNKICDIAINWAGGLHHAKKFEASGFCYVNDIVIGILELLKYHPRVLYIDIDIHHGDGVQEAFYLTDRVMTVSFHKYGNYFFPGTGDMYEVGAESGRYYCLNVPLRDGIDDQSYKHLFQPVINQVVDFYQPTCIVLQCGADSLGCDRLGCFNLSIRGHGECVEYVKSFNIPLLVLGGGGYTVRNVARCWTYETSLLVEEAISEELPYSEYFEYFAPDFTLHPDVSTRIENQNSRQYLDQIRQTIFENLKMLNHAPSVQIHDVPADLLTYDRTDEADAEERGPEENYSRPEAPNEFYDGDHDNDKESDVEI

IC50 [2] | inhibition [3] | inhibition [5] | IC50 [7] | inhibition [8] | Compound | Activity [1] | IC50 [4] | inhibition [6]
330 nM | 98.1% | Dose-dependent effect | 356 nM | 22.8% | COc1ccc2c(c1)c(CC(=O)NCCCCCCC(=O)NO)c(C)n2C(=O)c1ccc(Cl)cc1 | 1.95% | 8870 nM | Dose-dependent effect
300 nM | 100% | Dose-dependent effect | 424 nM | 61.4% | Cc1ccc(-c2cc(C(F)(F)F)nn2-c2ccc(S(=O)(=O)NCCCCCCC(=O)NO)cc2)cc1 | -0.32% | 6500 nM | Dose-dependent effect
